Measurements reported in patent publication US9950998B2, “Sulphated chelating agent” (priority 2012, dated 2018).
One block for each compound: values may come before it.

What was measured:
Water solubility = format: physicochemical; details: for water solubility: synthesis example, isolated powder
pH of 30% solution = format: physicochemical
E. Coli = test: Biocide effication plate test, E. Coli; format: cell-based; details: for Total Plate Count: Blanco 3900
[1] = test system: Total Plate Count Microorganism; test: Biocide effication plate test, total plate count microorganism; format: cell-based; details: for Total Plate Count: Blanco/Control 2400
[2] = test system: Staphylococcus Aerus ATCC 6538; test: Antibacterial activity MIC; format: cell-based; details: pH 7-7.5, sample 30% in aqueous solution
Experimental: (§1) The ability of Tetra Hydroxy Ethyl Di Sulphate-Di Natrium (THES) as a Sulphate chelating agent to open/loosen the cell membrane was tested against two types of bacterias, ie: Staphylococcus aerus (gram positive) that has two cell membrane (the outer membrane as the outer cell wall and the inner membrane) and E. Colli (gram negative) that has three cell membranes. First, the Minimum Inhibitory Concentration (MIC) of each bacterias was determined, then the bacteria membrane alteration after contacting with THES were observed by Electron Microscope (TEM and SEM) with the THES concentration range below and above MIC. Antibacterial activity was tested using disc-diffusion method by checking the clear zone from the paper disc inhibition that contains THES. The growth curve were made by means examining the bacterial culture on the broth media.
(§2) • 1. Bacteria preparation • The testing bacterias were growth on the aqueous medium and incubated for 24 hours at 37° C. • 2. […] This gradual concentration variation is necessary to determine MIC (Minimum Inhibitory Concentration) and the bacteriostatic/bactericidal properties of the tested Biocide. • 3. Determination of Killing method (bacteriostatic and bactericidal properties) • The testing was done on the aqueous medium contains the tested substance with the concentration 5, 10 and 20%. The turbidity of the cultured medium then will be measured every 30 minutes until 270 minutes with spectrophotometer. • 4. Preparation of microbe cells for electron microscope examination • Staphylococcus aereus and Escherichia coli were growth on the aqueous medium within 24 hours, then mixed with tetra hydroxy ethyl di sulphate di sodium (THES) with the final concentration 0.6; 5 and 10%. This system mixtures then was placed under vibrating incubator for several hours. Microbe cells then were separated and washed, first with NaCl 0.9% then with distilled water. Cells then were utilized for the preparation of electron microscope testing. • 5. Preparation for Scanning Electron Microscope (SEM) examination • Bacteria cells were suspended into 4% collodion. The said suspensions then were fixed on some metal disc and were coated with the gold powder. Then were examined with electron microscope and pictured. • 6. Preparation for Transmittance Electron Microscope (TEM) examination • a) The prepared microbes in (5) were fixed into a mixture of formaldehyde 2% and glutaraldehyde 0.5% for 2 hours at 4° C. • b) The above mixtures then was three times washed with pH 7 phosphate buffer, then were diluted into bovin serum albumin (BSA) 1/5 for embedded preparation, while leave glutaraldehyde hardening at room temperature. • c) After leaving dehydrated in alcohol, the white LR resin then will be infiltrated. • d) Embedded process were done at white LR resin following by polymerization process at 60° C. for 48 hours time. The polymerization product as hardened capsules then are ready to be sliced. • e) Making of semi thin and ultra thin slices. • Slices of microbe sample were made by utilizing automatic ultra microtom. To get the precised and accurate slices of sample, semi thin slice were made and coloured with blue toluidine then were examined under the visible microscope. When the right slices were obtained, ultra thin slices were prepared and were made contrast with uranil acetate and lead citrate. The dried ultra thin slices then can be examined with Transmittance Electron Microscope. Testing Results Minimum Inhibitory Concentration (MIC)
(§3) The test done on the pH range of 7-7.5 with the sample of Tetra Hydroxy Ethyl Di Sulphate-Di Natrium (THES-Di Natrium) 30% in aqueous solution.

[3] = test system: Bacillus Subtilis ATCC 6633; test: Antibacterial activity MIC; format: cell-based; details: pH 7-7.5, sample 30% in aqueous solution
Experimental: as §1, §2, §3

Acinetobacter Anitratus = test: Antibacterial activity MIC; format: cell-based; details: pH 7-7.5, sample 30% in aqueous solution
Experimental: as §1, §2, §3

[4] = test system: Pseudomonas Aeruginosa ATCC 27853; test: Antibacterial activity MIC; format: cell-based; details: pH 7-7.5, sample 30% in aqueous solution
Experimental: as §1, §2, §3

Salmonella Typhii = test: Antibacterial activity MIC; format: cell-based; details: pH 7-7.5, sample 30% in aqueous solution
Experimental: as §1, §2, §3

[5] = test system: Escherichia Coli ATCC 25922; test: Antibacterial activity MIC; format: cell-based; details: pH 7-7.5, sample 30% in aqueous solution
Experimental: as §1, §2, §3

[6] = test system: Staphylococcus Epidermidis ATCC 12228; test: Antibacterial activity MIC; format: cell-based; details: pH 7-7.5, sample 30% in aqueous solution
Experimental: as §1, §2, §3

Klebsiella Pneumoniae = test: Antibacterial activity MIC; format: cell-based; details: pH 7-7.5, sample 30% in aqueous solution
Experimental: as §1, §2, §3

Candida Albicans = test: Antifungal activity MIC; format: cell-based; details: pH 7-7.5, sample 30% in aqueous solution
Experimental: as §1
(§4) • 1. Bacteria preparation • The testing bacterias were growth on the aqueous medium and incubated for 24 hours at 37° C. • 2. […] The turbidity of the cultured medium then will be measured every 30 minutes until 270 minutes with spectrophotometer. • 4. […] The polymerization product as hardened capsules then are ready to be sliced. • e) Making of semi thin and ultra thin slices. • Slices of microbe sample were made by utilizing automatic ultra microtom. […]

Aspergillus Niger = test: Antifungal activity MIC; format: cell-based; details: pH 7-7.5, sample 30% in aqueous solution
Experimental: as §1, §4

[7] = test system: Staphylococcus Aerus ATCC 6538; test: Electron microscope (TEM and SEM) examination of cell membrane; format: cell-based; details: in contact with 0.05% and 1% THES at pH 7 (FIG. 4)
Experimental: as §1
(§5) Staphylococcus aerus ATCC 6538, Escherichia coli ATCC 9637 were supplied from Chemotherapy Laboratory of Pharmaceutical Department, Bandung Institute of Technology (ITB).
as §4, with “1.” for “1. Bacteria preparation • The testing bacterias were growth on the aqueous medium and incubated for 24 hours at 37° C. • 2.”

[8] = test system: Escherichia coli ATCC 9637; test: as above; format: cell-based; details: in contact with 0.05% and 1% THES at pH 7 (FIG. 5)
Experimental: as §1, §5
as §4, with “1.” for “1. Bacteria preparation • The testing bacterias were growth on the aqueous medium and incubated for 24 hours at 37° C. • 2.”

Staphylococcus Aerus = test: Biocide effication plate test, Staphylococcus Aerus; format: cell-based; details: biocide dosing 0.025%

Solubility @ 25° C. (Water solubility): 48%
water solubility (Water solubility): 48%
pH of 30% solution (pH of 30% solution): 0.0
SMILES: O=S(=O)(O)OC(OS(=O)(=O)O)(OS(=O)(=O)O)C(OS(=O)(=O)O)(OS(=O)(=O)O)OS(=O)(=O)O [EHS, Ethyl Hexa Sulphate acid (EHS)]

Solubility @ 25° C. (Water solubility): 56.7%
pH of 30% solution (pH of 30% solution): <0.0
SMILES: O=S(=O)(O)OC(O)C(C(O)OS(=O)(=O)O)C(O)OS(=O)(=O)O (stereo not shown) [Tri Hydroxy Isobutyl 1,2,3-Tri Sulphate]

Solubility @ 25° C. (Water solubility): 27.3%
pH of 30% solution (pH of 30% solution): 0.0-1.0
SMILES: O=S(=O)([O-])OC(O)C(O)(OS(=O)(=O)[O-])C(O)(OS(=O)(=O)[O-])C(O)OS(=O)(=O)[O-].[Na+].[Na+].[Na+].[Na+] (stereo not shown) [Tetra Hydroxy Butyl 1,2,3,4 Tetra Sulphate Tetra Natrium]

Solubility @ 25° C. (Water solubility): 61.2%
pH of 30% solution (pH of 30% solution): <0
SMILES: O=S(=O)(O)OOC(O)C(O)(OS(=O)(=O)O)C(C(O)OS(=O)(=O)O)C(O)OS(=O)(=O)O (stereo not shown) [Tetra Hydroxy Isoamyl 1,2,3,4-Tetra Sulphate]

Solubility @ 25° C. (Water solubility): 39.6%
pH of 30% solution (pH of 30% solution): <0.0
SMILES: O=S(=O)(O)OC(O)C(O)(OS(=O)(=O)O)C(O)(OS(=O)(=O)O)C(O)OS(=O)(=O)O (stereo not shown) [Tetra Hydroxy Butyl 1,2,3,4 Tetra Sulphate]

Second part, the compound before the results:

SMILES: O=S(=O)([O-])OOC(O)C(O)(OS(=O)(=O)[O-])C(C(O)OS(=O)(=O)[O-])C(O)OS(=O)(=O)[O-].[Na+].[Na+].[Na+].[Na+] (stereo not shown) [Tetra Hydroxy Isoamyl 1,2,3,4-Tetra Sulphate Tetra Natrium]
Solubility @ 25° C. (Water solubility): 40.1%
pH of 30% solution (pH of 30% solution): 0.0-0.5

SMILES: O=S(=O)([O-])OC(O)(O)C(O)(O)OS(=O)(=O)[O-].[Na+].[Na+] [THES-di Natrium]
Killing efficiency (E. Coli; biocide dosing 0.025%): 48.5
Total Plate Count (E. Coli; biocide dosing 0.025%): 2010 Colony/ml
Killing efficiency (E. Coli; biocide dosing 0.05%): 70.5
Total Plate Count (E. Coli; biocide dosing 0.05%): 1150 Colony/ml
Killing efficiency (E. Coli; biocide dosing 0.1%): 73.1
Total Plate Count (E. Coli; biocide dosing 0.1%): 1050 Colony/ml
Killing efficiency (E. Coli; biocide dosing 0.5%): 75.1
Total Plate Count (E. Coli; biocide dosing 0.5%): 970 Colony/ml
Killing efficiency (E. Coli; biocide dosing 1.0%): 81.5
Total Plate Count (E. Coli; biocide dosing 1.0%): 720 Colony/ml
Killing efficiency (E. Coli; biocide dosing 5.0%): 83.8
Total Plate Count (E. Coli; biocide dosing 5.0%): 630 Colony/ml
Killing efficiency ([1]; biocide dosing 0.05%): 94.5
Total Plate Count ([1]; biocide dosing 0.05%): 132 Colony/ml
Killing efficiency ([1]; biocide dosing 0.1%): 95.2
Total Plate Count ([1]; biocide dosing 0.1%): 115 Colony/ml
Killing efficiency ([1]; biocide dosing 0.5%): 95.8
Total Plate Count ([1]; biocide dosing 0.5%): 101 Colony/ml
Killing efficiency ([1]; biocide dosing 1.0%): 96.7
Total Plate Count ([1]; biocide dosing 1.0%): 80 Colony/ml
Minimum Inhibitory Concentration (MIC) [2]: 0.234%
Minimum Inhibitory Concentration (MIC) [3]: 0.234%
Minimum Inhibitory Concentration (MIC) (Acinetobacter Anitratus): 0.115%
Minimum Inhibitory Concentration (MIC) [4]: 0.115%
Minimum Inhibitory Concentration (MIC) (Salmonella Typhii): 0.115%
Minimum Inhibitory Concentration (MIC) [5]: 0.234%
Minimum Inhibitory Concentration (MIC) [6]: 0.234%
Minimum Inhibitory Concentration (MIC) (Klebsiella Pneumoniae): 0.234%
Solubility @ 25° C. (Water solubility): 31.5%
water solubility (Water solubility): 31%
Minimum Inhibitory Concentration (MIC) (Candida Albicans): 0.469%
Minimum Inhibitory Concentration (MIC) (Aspergillus Niger): 0.937%
transversal section (TEM) of cell, cell membrane alteration [7]: partly empty cells that has already lost its cytoplasm liquid due to lysis out of cell wall membrane
transversal section (TEM) of cell, cell membrane alteration [8]: also experienced the said internal cell liquid lysis out of its cell wall membrane layers
Killing efficiency (Staphylococcus Aerus): 69.8
Total Plate Count (Staphylococcus Aerus; Blanco 980): 296 Colony/ml
pH of 30% solution (pH of 30% solution): 0.5-1.5

SMILES: O=S(=O)(O)OC(O)(O)C(O)(O)OS(=O)(=O)O [Tetra Hydroxy Ethyl Di Sulphate]
Solubility @ 25° C. (Water solubility): 48.0%
water solubility (Water solubility): 48%
pH of 30% solution (pH of 30% solution): <0.5

SMILES: O=S(=O)([O-])OC(O)C(C(O)OS(=O)(=O)[O-])C(O)OS(=O)(=O)[O-].[Na+].[Na+].[Na+] (stereo not shown) [Tri Hydroxy Isobutyl 1,2,3-Tri Sulphate Tri Natrium]
Solubility @ 25° C. (Water solubility): 36.2%
pH of 30% solution (pH of 30% solution): 0.0-1.0
